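Briefly, cells in 96-well plates were exposed to five compound concentrations for 48 h, and endpoints were estimated by linear interpolation. GI50 = concentration required for 50% inhibition of growth.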 Calls of active or inactive are those of the source. Rule as the data show it: active = GI50 up to about 1.1 µM and inactive = higher.

We go through ten molecules from ChEMBL document CHEMBL1201862, “PubChem BioAssay data set” (2004).

Some test systems named below: T47D; 786-0; OVCAR-3; A549; K562; OVCAR-5; MDA-MB-231; OVCAR-4; A498; Hs-578T; SW-620; M14; HCT-15; HCT-116; NCI-H23; OVCAR-8; LOX IMVI; SK-MEL-2; SK-OV-3; IGROV-1.
What all share (assay): NCI tumour cell line growth inhibition, 48 h

Take `CC(=C(C(=O)O)C(=O)O)c1cc(-c2cccs2)cc(-c2ccc(Cl)cc2)c1O`: the GI50 with T47D is 6.68 µM (inactive); in the experiment with 786-0 it was 15.2 µM (inactive); in the experiment on OVCAR-3, 14.9 µM (inactive); with A549, 20.7 µM (inactive); with K562, 5.3 µM (inactive); in the experiment on OVCAR-5 it was 29.4 µM (inactive). The GI50 with MDA-MB-231 was 18.2 µM (inactive); in the experiment with OVCAR-4, 26.7 µM (inactive); in the experiment with A498, 16 µM (inactive); in the experiment with Hs-578T, > 42.7 µM (inactive); in the experiment on SW-620, 18.7 µM (inactive); in the experiment with M14 it was 17.7 µM (inactive). Also, the GI50 in the experiment on HCT-15 is 14 µM; in the experiment on HCT-116, 13.8 µM (inactive); with NCI-H23, 17.3 µM (inactive); in the experiment on OVCAR-8, 19.2 µM (inactive); with LOX IMVI it was 13.2 µM (inactive); with SK-MEL-2, 32.4 µM (inactive). The GI50 with SK-OV-3 is 33.7 µM (inactive); in the experiment with IGROV-1 it was 15.2 µM (inactive).

With `Oc1cccc2cc(Cl)cnc12`, the GI50 was 4.42 µM (inactive) in the experiment with T47D; 23.6 µM (inactive) with 786-0; 2.99 µM (inactive) with OVCAR-3; 7.08 µM (inactive) with A549; 3.87 µM (inactive) with K562; 28 µM (inactive) with OVCAR-5. Moreover, the GI50 in the experiment on MDA-MB-231 was 9.68 µM (inactive); in the experiment on OVCAR-4 it was 3.38 µM (inactive); in the experiment with A498 it was 23.8 µM (inactive); with Hs-578T it was 6.93 µM (inactive); in the experiment on SW-620, 7.18 µM (inactive); with M14, 9.06 µM (inactive). For the same molecule, the GI50 is 3.82 µM in the experiment with HCT-15; 4.46 µM (inactive) in the experiment with HCT-116; 6.12 µM (inactive) in the experiment on NCI-H23; 3.7 µM (inactive) in the experiment on OVCAR-8; 5.04 µM (inactive) with LOX IMVI; 40.8 µM (inactive) in the experiment with SK-MEL-2. Besides, the results for the GI50 in the experiment with SK-OV-3 and with IGROV-1 were 50.4 µM (inactive) and 7.16 µM (inactive), respectively.

As for `c1ccc([P+](CC[P+](c2ccccc2)(c2ccccc2)c2ccccc2)(c2ccccc2)c2ccccc2)cc1`, the GI50 in the experiment on T47D was 4.34 µM (inactive); in the experiment on 786-0 it was 21.9 µM (inactive); in the experiment on OVCAR-3, 13 µM (inactive); with A549, 2.49 µM (inactive); in the experiment with K562, 2.44 µM (inactive); in the experiment with OVCAR-5, 44.4 µM (inactive). The GI50 with MDA-MB-231 was 38.6 µM (inactive); in the experiment on OVCAR-4, 34.3 µM (inactive); with A498, 5.87 µM (inactive); in the experiment on Hs-578T, 7.98 µM (inactive); in the experiment with SW-620, 3.62 µM (inactive); in the experiment with M14, 22.3 µM (inactive). Moreover, the GI50 was 29 µM in the experiment on HCT-15; 16.5 µM (inactive) with HCT-116; 26.3 µM (inactive) with NCI-H23; 4.82 µM (inactive) with OVCAR-8; 63 µM (inactive) in the experiment on LOX IMVI; 9.38 µM (inactive) in the experiment on SK-MEL-2. For the same molecule, the values for the GI50 with SK-OV-3 and with IGROV-1 were > 84.9 µM (inactive) and 38 µM (inactive), respectively.

On to `CCOC(=O)C1=C(C)N(c2ccc(Cl)cc2)C2(O)C=CC(=O)C3C(=O)N(c4ccccc4)C(=O)C132` (stereo not given), for which the GI50 in the experiment with T47D is 2.3 µM (inactive); with 786-0, 1.53 µM (inactive); in the experiment on OVCAR-3, 1.28 µM (inactive); with A549 it was 2.83 µM (inactive); in the experiment with K562 it was 3.08 µM (inactive); in the experiment with OVCAR-5 it was 2.01 µM (inactive). Moreover, the GI50 in the experiment with MDA-MB-231 is 2.09 µM (inactive); with OVCAR-4, 1.54 µM (inactive); with A498 it was 1.56 µM (inactive); with Hs-578T, 2.39 µM (inactive); in the experiment with SW-620, 1.54 µM (inactive); in the experiment with M14, 1.66 µM (inactive). Besides, the GI50 in the experiment on HCT-15 is 1.82 µM; in the experiment on HCT-116, 1.44 µM (inactive); in the experiment on NCI-H23, 1.93 µM (inactive); in the experiment on OVCAR-8 it was 2.12 µM (inactive); in the experiment on LOX IMVI, 1.36 µM (inactive); in the experiment on SK-MEL-2, 1.78 µM (inactive). The values for the GI50 with SK-OV-3 and in the experiment on IGROV-1 were 2.4 µM (inactive) and 1.54 µM (inactive), respectively.

For the molecule `CCSC(=O)/C=C1\CN(C(=O)OC(C)(C)C)C1C(=O)OC(C)(C)C` (stereo not given), the GI50 with T47D was 4.34 µM (inactive); in the experiment on 786-0 it was 1.87 µM (inactive); with OVCAR-3 it was 2.42 µM (inactive); in the experiment on A549 it was 12.1 µM (inactive); in the experiment on K562 it was 1.91 µM (inactive); in the experiment on OVCAR-5, 6.24 µM (inactive). The GI50 in the experiment on MDA-MB-231 was 4.29 µM (inactive); in the experiment with OVCAR-4, 2.38 µM (inactive); in the experiment on A498, 11.2 µM (inactive); in the experiment with Hs-578T, 4.17 µM (inactive); in the experiment on SW-620 it was 2.07 µM (inactive); in the experiment on M14, 1.77 µM (inactive). For the same molecule, the GI50 is 1.52 µM with HCT-15; 1.55 µM (inactive) with HCT-116; 2.6 µM (inactive) with NCI-H23; 2.91 µM (inactive) in the experiment with OVCAR-8; 1.45 µM (inactive) in the experiment on LOX IMVI; 6.59 µM (inactive) in the experiment with SK-MEL-2. Also, the GI50 is 13.8 µM (inactive) in the experiment with SK-OV-3 and 4.28 µM (inactive) with IGROV-1.

As to `COc1cc(Cc2cc3c(c(C(=O)O)c2Br)OCO3)cc(OC)c1OC`, the GI50 is > 100 µM (inactive) in the experiment with T47D; > 100 µM (inactive) in the experiment on 786-0; > 100 µM (inactive) in the experiment with OVCAR-3; > 100 µM (inactive) in the experiment on A549; 40.9 µM (inactive) in the experiment on K562; > 100 µM (inactive) in the experiment with OVCAR-5. For the same molecule, the GI50 is > 100 µM (inactive) in the experiment with MDA-MB-231; > 100 µM (inactive) in the experiment with OVCAR-4; > 100 µM (inactive) with A498; > 100 µM (inactive) in the experiment on Hs-578T; 69.2 µM (inactive) in the experiment with SW-620; 70.8 µM (inactive) in the experiment with M14. The GI50 in the experiment with HCT-15 is 41.6 µM; in the experiment on HCT-116, 37 µM (inactive); with NCI-H23, > 100 µM (inactive); with OVCAR-8 it was > 100 µM (inactive); with LOX IMVI, 83.8 µM (inactive); with SK-MEL-2, > 100 µM (inactive). The GI50 in the experiment with SK-OV-3 and in the experiment on IGROV-1 was > 100 µM (inactive) each time.

Consider `Cc1ccc(S(=O)(=O)n2ccc(-c3ccc4ccn(S(=O)(=O)c5ccc(C)cc5)c4c3)c2)cc1`, for which the GI50 with T47D, with 786-0, with OVCAR-3, with A549, in the experiment on K562 and in the experiment with OVCAR-5 was > 100 µM (inactive) in each case. The GI50 is > 100 µM (inactive) with MDA-MB-231; > 100 µM (inactive) in the experiment on OVCAR-4; > 100 µM (inactive) in the experiment with A498; 27.9 µM (inactive) with Hs-578T; > 100 µM (inactive) with SW-620; > 100 µM (inactive) in the experiment with M14. The GI50 in the experiment on HCT-15 is above 100 µM; in the experiment with HCT-116 it was > 100 µM (inactive); in the experiment with NCI-H23, > 100 µM (inactive); in the experiment on OVCAR-8, > 100 µM (inactive); in the experiment on LOX IMVI it was > 100 µM (inactive); in the experiment with SK-MEL-2 it was > 100 µM (inactive). Moreover, the GI50 in the experiment on SK-OV-3 and in the experiment with IGROV-1 was > 100 µM (inactive) throughout.

For the molecule `Cc1cn(C2CC(N/C(=N/C#N)NCC3OC(n4cnc5c(N)ncnc54)CC3O)C(CO)O2)c(=O)[nH]c1=O` (stereo not given), the GI50 in the experiment with T47D, in the experiment on 786-0, in the experiment with OVCAR-3, in the experiment with A549, in the experiment on K562 and in the experiment on OVCAR-5 was > 100 µM (inactive) in each case. The GI50 in the experiment with MDA-MB-231, with OVCAR-4, in the experiment on A498, in the experiment with Hs-578T, in the experiment on SW-620 and with M14 was > 100 µM (inactive) each time. In addition, the GI50 is above 100 µM with HCT-15; > 100 µM (inactive) with HCT-116; > 100 µM (inactive) with NCI-H23; > 100 µM (inactive) with OVCAR-8; > 100 µM (inactive) in the experiment with LOX IMVI; > 100 µM (inactive) in the experiment on SK-MEL-2. For the same molecule, the GI50 in the experiment on SK-OV-3 and with IGROV-1 was > 100 µM (inactive) throughout.

For the molecule `COc1ccccc1C(=O)NCC1CCCN2CCCCC12` (stereo not given), the GI50 with T47D was > 100 µM (inactive); in the experiment on 786-0 it was > 100 µM (inactive); in the experiment on OVCAR-3 it was > 100 µM (inactive); in the experiment on A549, 93.3 µM (inactive); in the experiment with K562, > 100 µM (inactive); in the experiment on OVCAR-5, > 100 µM (inactive). For the same molecule, the GI50 in the experiment on MDA-MB-231, in the experiment on OVCAR-4, in the experiment with A498, with Hs-578T, in the experiment on SW-620 and with M14 was > 100 µM (inactive) in each case. Further, the GI50 with HCT-15 is above 100 µM; in the experiment on HCT-116 it was > 100 µM (inactive); with NCI-H23, > 100 µM (inactive); with OVCAR-8, > 100 µM (inactive); in the experiment with LOX IMVI it was > 100 µM (inactive); in the experiment on SK-MEL-2, > 100 µM (inactive). The GI50 in the experiment on SK-OV-3 and in the experiment with IGROV-1 was > 100 µM (inactive) throughout.

`Cc1nc(SCC(N)=O)c2sc(=S)n(-c3ccccc3)c2n1`: the GI50 with T47D, in the experiment on 786-0, in the experiment on OVCAR-3, with A549, with K562 and with OVCAR-5 was > 10 µM (inactive) throughout. Further, the GI50 with MDA-MB-231, in the experiment on OVCAR-4, in the experiment with A498, with Hs-578T, in the experiment with SW-620 and in the experiment with M14 was > 10 µM (inactive) throughout. Also, the GI50 was above 10 µM in the experiment on HCT-15; > 10 µM (inactive) with HCT-116; > 10 µM (inactive) with NCI-H23; > 10 µM (inactive) with OVCAR-8; > 10 µM (inactive) in the experiment with LOX IMVI; > 10 µM (inactive) in the experiment on SK-MEL-2. For the same molecule, the GI50 with SK-OV-3 and in the experiment on IGROV-1 was > 10 µM (inactive) in each case.
